# Results reported in US5331006A, “Amino acid analogs as CCK antagonists” (Warner-Lambert Company, priority 1991, dated 1994).
# Like-named read-outs stand apart in the source and are kept apart here.
# Target: T1, CCK receptor sites (Mus musculus, UniProt P56481)
# T1 construct: from tissue; host or cells: cerebral cortex membranes of male CFLP mice
# T1 sequence (P56481 1-453): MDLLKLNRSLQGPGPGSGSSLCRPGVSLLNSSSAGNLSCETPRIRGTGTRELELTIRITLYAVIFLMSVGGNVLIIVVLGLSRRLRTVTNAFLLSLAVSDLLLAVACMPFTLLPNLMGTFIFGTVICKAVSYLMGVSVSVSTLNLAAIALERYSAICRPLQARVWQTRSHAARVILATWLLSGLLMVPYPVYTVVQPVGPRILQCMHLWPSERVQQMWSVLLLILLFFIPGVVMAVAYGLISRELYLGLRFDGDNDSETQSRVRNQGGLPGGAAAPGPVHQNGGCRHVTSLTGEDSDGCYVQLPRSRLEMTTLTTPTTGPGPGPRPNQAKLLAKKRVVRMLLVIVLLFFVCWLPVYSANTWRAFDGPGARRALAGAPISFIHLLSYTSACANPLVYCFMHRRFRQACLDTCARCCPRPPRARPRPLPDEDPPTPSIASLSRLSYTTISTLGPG
# Test: CCK receptor binding, displacement of tritiated pentagastrin from mouse cerebral cortex membranes
# Set-up: key: IA = Inactive in respect to this binding assay
# Settings: 2 nM tritiated pentagastrin, mouse cerebral cortical membranes, Ki from IC50 by Cheng-Prusoff
# Protocol: The biological activity of compounds of the present invention was evaluated employing an initial screening test which rapidly and accurately measured the binding of the tested compound to known CCK receptor sites. […] (See Hays, et al, Neuropeptides 1:53-62, 1980; and Satuer, et al, Science 208:1155-1156, 1980.)
# In this screening test the cerebral cortices taken from male CFLP mice weighing between 30 to 40 g were dissected on ice, weighed, and homogenized in 10 volumes of 50 mM Tris-HCl buffer (pH 7.4 at 0° to 4° C.). The resulting suspension was centrifuged, the supernate was discarded, and the pellet was washed by resuspension in Tris-HCl buffer followed by recentrifugation. The final pellet was resuspended in 20 volumes of […] Hepes buffer (pH 7.2 at 23° C.) containing 130 mM NaCl, […] KCl, […] MgCl2, […] EDTA, 5 mg/mL bovine albumin, and bacitracin (0.25 mg/mL).
# In saturation studies, cerebral cortical membranes were incubated at 23° C. for 120 minutes in a final volume of 500 μL of Hepes incubation buffer (pH 7.2) together with 0.2-20 nM tritiated-pentagastrin (Amersham International, England).
# In the displacement experiments, membranes were incubated with a single concentration (2 nM) of ligand, together with increasing concentrations of competitive test compound. In each case, the nonspecific binding was defined as that persisting in the presence of the unlabeled octapeptide CCK26-33 (10^-6 M).
# Following incubation, radioactivity bound to membranes was separated from that free in solution by rapid filtration through Whatman GF/B filters and washed three times with 4 mL of ice cold Tris-HCl buffer. Filters from samples incubated with tritiated pentagastrin were placed in polyethylene vials with 4 mL of scintillation cocktail, and the radioactivity was estimated by liquid scintillation spectrometry (efficiency 47% to 52%).
# The specific binding to CCK receptor sites was defined as the total bound tritiated pentagastrin minus the amount of tritiated pentagastrin bound in the presence of 10^-6 octapeptide, CCK26-33.
# Saturation curves for specific tritiated pentagastrin binding to mouse cortical membranes were analyzed by the methods of Scatchard (Ann. New York Acad. Sci. 51:660-672, 1949; Hill, J. Physiol. 40:IV-VIII, 1910) to provide estimates for the maximum number of binding sites (βmax)and the equilibrium dissociation constant (Ka).
# In displacement experiments, inhibition curves were analyzed by either logit-log plots or the iterative curve fitting computer program ALLFIT (DeLean, Munson, and Redbard, 1978) to provide estimates of the IC50 and nH (apparent Hill coefficient) values). IC50 values were defined as the concentration of test compound required to produce 50% inhibition of specific binding).
# The inhibition constant (Ki) of the test compound was then calculated according to the Cheng-Prusoff equation: [formula] where [L] is the concentration of radiolabel and Ka is the equilibrium dissociation constant.
# The Ki values for several representative compounds of the present invention are present in Table II.
Structure (SMILES),Ki (read-out: Ki),Ki
CC(Cc1cc2c3ccccc3n(S(C)(=O)=O)c2cn1)(NC(=O)OC1C2CC3CC(C2)CC1C3)C(=O)NC(CO)Cc1ccccc1 (centres unmarked),844 nM,–
CC(Cc1cc2c3ccccc3n(S(C)(=O)=O)c2cn1)(NC(=O)OC1C2CC3CC(C2)CC1C3)C(=O)NCCc1ccccc1 (centres unmarked),1990 nM,–
CC(Cc1cc2c(cn1)[nH]c1ccccc12)(NC(=O)OC1C2CC3CC(C2)CC1C3)C(=O)NCCc1ccccc1 (centres unmarked),2170 nM,–
CC(Cc1ccccn1)(NC(=O)OC1C2CC3CC(C2)CC1C3)C(=O)NCCc1ccccc1 (centres unmarked),3000 nM,–
CC(Cc1cc2c(cn1)[nH]c1ccccc12)(NC(=O)OC1C2CC3CC(C2)CC1C3)C(=O)NC(CO)Cc1ccccc1 (centres unmarked),1390 nM,–
CC(Cc1ccncc1)(NC(=O)OC1C2CC3CC(C2)CC1C3)C(=O)NCCc1ccccc1 (centres unmarked),3000 nM,–
CC(Cc1cccnc1)(NC(=O)OC1C2CC3CC(C2)CC1C3)C(=O)NCCc1ccccc1 (centres unmarked),–,IA
CC(CC1CCc2ccccc2N1)(NC(=O)OC1C2CC3CC(C2)CC1C3)C(=O)NCC(NC(=O)CCC(=O)O)c1ccccc1 (centres unmarked),690 nM,–
CC(CC1C=Cc2ccccc2N1)(NC(=O)OC1C2CC3CC(C2)CC1C3)C(=O)NCC(NC(=O)CCC(=O)O)c1ccccc1 (centres unmarked),3000 nM,–
CC(Cc1ccc[n+]([O-])c1)(NC(=O)OC1C2CC3CC(C2)CC1C3)C(=O)NCCc1ccccc1 (centres unmarked),–,IA
CN1c2ccccc2C(c2ccccc2)=NCC1CC(C)(NC(=O)OC1C2CC3CC(C2)CC1C3)C(=O)NCC(NC(=O)CCC(=O)O)c1ccccc1 (centres unmarked),290 nM,–
"CC(Cc1ccccn1)(NC(=O)OC1C2CC3CC(C2)CC1C3)C(=O)NC(CO)Cc1ccccc1 (single isomer, unassigned) [drawing 14 (Diast I)]",1000 nM,–
"CC(Cc1cccc[n+]1[O-])(NC(=O)OC1C2CC3CC(C2)CC1C3)C(=O)NC(CO)Cc1ccccc1 (single isomer, unassigned) [drawing 20]",–,IA
"CC(Cc1cccc[n+]1[O-])(NC(=O)OC1C2CC3CC(C2)CC1C3)C(=O)NC(CO)Cc1ccccc1 (single isomer, unassigned) [drawing 22 (Diast II)]",–,IA
CC(Cc1cccc[n+]1[O-])(NC(=O)OC1C2CC3CC(C2)CC1C3)C(=O)NCCc1ccccc1 (centres unmarked) [drawing 22 (H H H H H)],–,IA
CC(Cc1cccc2ccccc12)(NC(=O)OC1C2CC3CC(C2)CC1C3)C(=O)NC(CO)Cc1ccccc1 (centres unmarked) [drawing 24],720 nM,–
CC(Cc1coc2ccccc12)(NC(=O)OC1C2CC3CC(C2)CC1C3)C(=O)NCCc1ccccc1 (centres unmarked) [drawing 27 (H H H H H)],990 nM,–
CC(Cc1c(Br)oc2ccccc12)(NC(=O)OC1C2CC3CC(C2)CC1C3)C(=O)NCCc1ccccc1 (centres unmarked) [drawing 28 (H H H H H)],1280 nM,–
CC(Cc1cccnc1)(NC(=O)OC1C2CC3CC(C2)CC1C3)C(=O)N[C@H](CO)Cc1ccccc1 (some centres unmarked) [drawing 32 (Diast I)],700 nM,–
CC(C)COC(=O)OC[C@H](Cc1ccccc1)NC(=O)C(C)(Cc1cccnc1)NC(=O)OC1C2CC3CC(C2)CC1C3 (some centres unmarked) [drawing 32 (H H CH2 OCO2 i-Bu H H)],3000 nM,–
CC(Cc1csc2ccccc12)(NC(=O)OC1C2CC3CC(C2)CC1C3)C(=O)NCCc1ccccc1 (centres unmarked) [drawing 47 (H H H H H)],760 nM,–
CC(Cc1n[nH]c2ccccc12)(NC(=O)OC1C2CC3CC(C2)CC1C3)C(=O)NCC(c1ccccc1)N1C(=O)CCC1=O (centres unmarked) [drawing 53/drawing 54 (Diast I)],–,IA
Cc1[nH]cc(CC(C)(NC(=O)OC2C3CC4CC(C3)CC2C4)C(=O)NC(CO)C(O)c2ccccc2)c1C (centres unmarked) [drawing 56 (H H CH2 OH H OH)],3000 nM,–
Cc1[nH]cc(CC(C)(NC(=O)OC2C3CC4CC(C3)CC2C4)C(=O)NCCc2ccccc2)c1C (centres unmarked) [drawing 56 (H H H H H)],–,IA
CC(Cc1ncc2ccccn12)(NC(=O)OC1C2CC3CC(C2)CC1C3)C(=O)N[C@@H](CO)[C@@H](O)c1ccccc1 (some centres unmarked) [drawing 57 (H H CH2 OH H OH)],750 nM,–
CC(Cc1ncc2ccccn12)(NC(=O)OC1C2CC3CC(C2)CC1C3)C(=O)NCCc1ccccc1 (centres unmarked) [drawing 57 (H H H H H)],930 nM,–
CC(Cc1ccc[n+]([O-])c1)(NC(=O)OC1C2CC3CC(C2)CC1C3)C(=O)NC(CO)Cc1ccccc1 (centres unmarked) [drawing 60 (Diast I)],–,IA
CC(Cc1ccncc1)(NC(=O)OC1C2CC3CC(C2)CC1C3)C(=O)NC(CO)Cc1ccccc1 (centres unmarked) [drawing 61 (Diast II)],–,IA
CN1c2ccccc2C(c2ccccc2)=NCC1CC(C)(NC(=O)OC1C2CC3CC(C2)CC1C3)C(=O)NCCc1ccccc1 (centres unmarked) [drawing 64 (Diast I)],760 nM,–

# The next lines start with the values.
Ki (read-out: Ki),Ki,Structure (SMILES)
304 nM,–,CC(Cc1cnc2ccccc2c1)(NC(=O)OC1C2CC3CC(C2)CC1C3)C(=O)NCCc1ccccc1 (centres unmarked)
290 nM,–,CC(Cc1ccc2ccccc2n1)(NC(=O)OC1C2CC3CC(C2)CC1C3)C(=O)NCC(NC(=O)CCC(=O)O)c1ccccc1 (centres unmarked)
88 nM,–,CC(Cc1ccnc2ccccc12)(NC(=O)OC1C2CC3CC(C2)CC1C3)C(=O)NCC(NC(=O)CCC(=O)O)c1ccccc1 (centres unmarked)
220 nM,–,CC(Cc1ccncc1)(NC(=O)OC1C2CC3CC(C2)CC1C3)C(=O)NCC(NC(=O)CCC(=O)O)c1ccccc1 (centres unmarked)
14 nM,–,CC(Cc1cccc2ccccc12)(NC(=O)OC1C2CC3CC(C2)CC1C3)C(=O)NC(CO)Cc1ccccc1 (centres unmarked) [drawing 26]
360 nM,–,CC(Cc1coc2ccccc12)(NC(=O)OC1C2CC3CC(C2)CC1C3)C(=O)NC(CO)Cc1ccccc1 (centres unmarked) [drawing 27 (H H CH2 OH H H)]
14 nM,–,CC(Cc1c(Br)oc2ccccc12)(NC(=O)OC1C2CC3CC(C2)CC1C3)C(=O)NC(CO)Cc1ccccc1 (centres unmarked) [drawing 28 (H H CH2 OH H H)]
410 nM,–,CC(Cc1ccc2ccccc2n1)(NC(=O)OC1C2CC3CC(C2)CC1C3)C(=O)N[C@H](CO)Cc1ccccc1 (some centres unmarked) [drawing 36 (Diast I)]
400 nM,–,CC(Cc1ccc2ccccc2n1)(NC(=O)OC1C2CC3CC(C2)CC1C3)C(=O)NCCc1ccccc1 (centres unmarked) [drawing 36 (H H H H H)]
69 nM,–,CC(Cc1n[nH]c2ccccc12)(NC(=O)OC1C2CC3CC(C2)CC1C3)C(=O)N[C@H](CO)Cc1ccccc1 (some centres unmarked) [drawing 38 (H H CH2 OH H H)]
100 nM,–,CC(Cc1n[nH]c2ccccc12)(NC(=O)OC1C2CC3CC(C2)CC1C3)C(=O)NCCc1ccccc1 (centres unmarked) [drawing 38 (H H H H H)]
129 nM,–,CC(Cc1ccnc2ccccc12)(NC(=O)OC1C2CC3CC(C2)CC1C3)C(=O)N[C@H](CO)Cc1ccccc1 (some centres unmarked) [drawing 40 (H H CH2 OH H H)]
262 nM,–,CC(Cc1ccnc2ccccc12)(NC(=O)OC1C2CC3CC(C2)CC1C3)C(=O)NCCc1ccccc1 (centres unmarked) [drawing 40 (H H H H H)]
402 nM,–,CC(Cc1ccc2ccccc2n1)(NC(=O)OC1C2CC3CC(C2)CC1C3)C(=O)NC(CO)Cc1ccccc1 (centres unmarked) [drawing 43 (H H CH2 OH H H)]
455 nM,–,CC(Cc1csc2ccccc12)(NC(=O)OC1C2CC3CC(C2)CC1C3)C(=O)N[C@H](CO)Cc1ccccc1 (some centres unmarked) [drawing 47 (H H CH2 OH H H)]
96 nM,–,CC(Cc1n[nH]c2ccccc12)(NC(=O)OC1C2CC3CC(C2)CC1C3)C(=O)NCC(NC(=O)CCC(=O)O)c1ccccc1 (centres unmarked) [drawing 53 (H H H H NHCOCH2 CH2 COOH)]
220 nM,–,CC(Cc1n[nH]c2ccccc12)(NC(=O)OC1C2CC3CC(C2)CC1C3)C(=O)NCC(c1ccccc1)N1C(=O)CCC1=O (centres unmarked) [drawing 53/drawing 54 (Diast II)]
370 nM,–,CC(Cc1ccncc1)(NC(=O)OC1C2CC3CC(C2)CC1C3)C(=O)NC(CO)Cc1ccccc1 (centres unmarked) [drawing 61 (Diast I)]
